Patent publication US8802597B2, “Herbicidal pyrimidines” (E I du Pont de Nemours and Company, priority 2003, dated 2014)
Like-named read-outs stand apart in the source and are kept apart here.

What was measured:
Assay type in all cases: in vivo
[1] = tested on: Surinam grass (Brachiaria decumbens); test: Test B pre/postemergence; details: Urochloa decumbens; for pest or weed control at 125 g/ha: 125 g ai/ha; for pest or weed control at 500 g/ha: 500 g ai/ha
In short: (§1)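 Plants treated pre- or postemergence were compared visually with controls after 13 to 15 days. Ratings ran from 0, no effect, to 100, complete control.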

[2] = tested on: barnyardgrass (Echinochloa crus-galli); test: Test B pre/postemergence; details: Echinochloa crus-galli; for pest or weed control at 125 g/ha: 125 g ai/ha; for pest or weed control at 500 g/ha: 500 g ai/ha
In short: as §1

[3] = tested on: cocklebur (Xanthium strumarium); test: Test B pre/postemergence; details: Xanthium strumarium; for pest or weed control at 125 g/ha: 125 g ai/ha; for pest or weed control at 500 g/ha: 500 g ai/ha
In short: as §1

corn (Zea mays) = test: Test B pre/postemergence; details: Zea mays
In short: as §1

[4] = tested on: crabgrass (Digitaria sanguinalis); test: Test B pre/postemergence; details: Digitaria sanguinalis; for pest or weed control at 125 g/ha: 125 g ai/ha; for pest or weed control at 500 g/ha: 500 g ai/ha
In short: as §1

[5] = tested on: giant foxtail (Setaria faberii); test: Test B pre/postemergence; details: Setaria faberi; for pest or weed control at 125 g/ha: 125 g ai/ha; for pest or weed control at 500 g/ha: 500 g ai/ha
In short: as §1

[6] = tested on: lambsquarters (Chenopodium album); test: Test B pre/postemergence; details: Chenopodium album; for pest or weed control at 125 g/ha: 125 g ai/ha; for pest or weed control at 500 g/ha: 500 g ai/ha
In short: as §1

[7] = tested on: morningglory (Ipomoea coccinea); test: Test B pre/postemergence; details: Ipomoea; for pest or weed control at 125 g/ha: 125 g ai/ha; for pest or weed control at 500 g/ha: 500 g ai/ha
In short: as §1

[8] = tested on: pigweed (Amaranthus retroflexus); test: Test B pre/postemergence; details: Amaranthus retroflexus; for pest or weed control at 125 g/ha: 125 g ai/ha; for pest or weed control at 500 g/ha: 500 g ai/ha
In short: as §1

[9] = tested on: velvetleaf (Abutilon theophrasti); test: Test B pre/postemergence; details: Abutilon theophrasti; for pest or weed control at 125 g/ha: 125 g ai/ha; for pest or weed control at 500 g/ha: 500 g ai/ha
In short: as §1

[10] = tested on: wheat (Triticum aestivum); test: Test B pre/postemergence; details: Triticum aestivum; for plant injury at 125 g/ha: 125 g ai/ha; for plant injury at 500 g/ha: 500 g ai/ha
In short: as §1

[11] = tested on: blackgrass (Alopecurus myosuroides); test: Test B postemergence; details: Alopecurus myosuroides, post-emergence
In short: as §1

wild oat (Avena fatua) = test: Test B postemergence; details: Avena fatua, post-emergence
In short: as §1

[12] = tested on: barnyardgrass (Echinochloa crus-galli); test: Test B flooded paddy test; details: Echinochloa crus-galli, Flood, 1000 g ai/ha; scale 0 (no effect) to 100 (complete control); read-out: Plant response rating, Barnyardgrass
In short: (§2)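 Visual injury scoring (0 = no effect, 100 = complete control) versus controls made 13 to 15 days after treatment in the greenhouse. Test species were grown in flooded paddy to the 2-leaf stage: rice, barnyardgrass, umbrella sedge, duck salad.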

[13] = tested on: duck salad (Heteranthera limosa); test: Test B flooded paddy test; details: Heteranthera limosa, Flood, 1000 g ai/ha; scale 0 to 100; read-out: Plant response rating, Ducksalad
In short: as §2

rice (Oryza sativa) = test: Test B flooded paddy test; details: Oryza sativa, Flood, 1000 g ai/ha; scale 0 to 100; read-out: Plant response rating, Rice
In short: as §2

[14] = tested on: umbrella sedge (Cyperus difformis); test: Test B flooded paddy test; details: Cyperus difformis, Flood, 1000 g ai/ha; scale 0 to 100; read-out: Plant response rating, Sedge, Umbrella
In short: as §2

Compound Nc1nc(C2CC2)nc(C(=O)OCc2ccccc2)c1Br [Compound 22, phenylmethyl 6-amino-5-bromo-2-cyclopropyl-4-pyrimidinecarboxylate] has a pest or weed control at 125 g/ha ([1]; post-emergence, Postemergence, scale 0 to 100 (0 no effect, 100 complete control), read-out: Surinam Grass plant response rating) of 80%, a pest or weed control at 500 g/ha ([1]; post-emergence, Postemergence, scale 0 to 100, read-out: Plant response rating, Surinam Grass) of 90% and a pest or weed control at 125 g/ha ([1]; pre-emergence, Preemergence, scale 0 to 100 (0 no effect, 100 complete control), read-out: Plant response rating, Surinam Grass) of 0%. The pest or weed control at 500 g/ha ([1]; pre-emergence, Preemergence, scale 0 to 100 (0 no effect, 100 complete control), read-out: Surinam Grass plant response rating) was 20%, the pest or weed control at 125 g/ha ([2]; post-emergence, Postemergence, scale 0 to 100 (0 no effect, 100 complete control), read-out: Barnyardgrass plant response rating) was 70% and the pest or weed control at 500 g/ha ([2]; post-emergence, Postemergence, scale 0 to 100, read-out: Plant response rating, Barnyardgrass) was 90%. It also gave a pest or weed control at 125 g/ha ([2]; pre-emergence, Preemergence, scale 0 to 100 (0 no effect, 100 complete control), read-out: Plant response rating, Barnyardgrass) of 0%, a pest or weed control at 500 g/ha ([2]; pre-emergence, Preemergence, scale 0 to 100 (0 no effect, 100 complete control), read-out: Barnyardgrass plant response rating) of 20% and a pest or weed control at 125 g/ha ([3]; post-emergence, Postemergence, scale 0 to 100 (0 no effect, 100 complete control), read-out: Cocklebur plant response rating) of 100%. It also gave a pest or weed control at 500 g/ha ([3]; post-emergence, Postemergence, scale 0 to 100, read-out: Plant response rating, Cocklebur) of 100%, a pest or weed control at 125 g/ha ([3]; pre-emergence, Preemergence, scale 0 to 100 (0 no effect, 100 complete control), read-out: Plant response rating, Cocklebur) of 50% and a pest or weed control at 500 g/ha ([3]; pre-emergence, Preemergence, scale 0 to 100 (0 no effect, 100 complete control), read-out: Cocklebur plant response rating) of 80%. It also gave a plant injury at 125 g/ha (corn (Zea mays); post-emergence, Postemergence, 125 g ai/ha, scale 0 to 100 (0 no effect, 100 complete control), read-out: Corn plant response rating) of 20%, a Corn plant response rating (crop injury, 0 = no effect, 100 = complete kill) at 500 g/ha (corn (Zea mays); post-emergence, Postemergence, 500 g ai/ha, scale 0 to 100) of 80% and a Corn plant response rating (crop injury, 0 = no effect, 100 = complete kill) at 125 g/ha (corn (Zea mays); pre-emergence, Preemergence, 125 g ai/ha, scale 0 to 100 (0 no effect, 100 complete control)) of 10%. For the same compound, the pest or weed control at 125 g/ha ([4]; post-emergence, Postemergence, scale 0 to 100 (0 no effect, 100 complete control), read-out: Crabgrass plant response rating) was 50%, the pest or weed control at 500 g/ha ([4]; post-emergence, Postemergence, scale 0 to 100, read-out: Plant response rating, Crabgrass) was 90% and the pest or weed control at 125 g/ha ([4]; pre-emergence, Preemergence, scale 0 to 100 (0 no effect, 100 complete control), read-out: Plant response rating, Crabgrass) was 20%. The pest or weed control at 500 g/ha ([4]; pre-emergence, Preemergence, scale 0 to 100 (0 no effect, 100 complete control), read-out: Crabgrass plant response rating) was 100%, the pest or weed control at 125 g/ha ([5]; post-emergence, Postemergence, scale 0 to 100 (0 no effect, 100 complete control), read-out: Foxtail, Giant plant response rating) was 70% and the pest or weed control at 500 g/ha ([5]; post-emergence, Postemergence, scale 0 to 100, read-out: Plant response rating, Foxtail, Giant) was 80%. It also gave a pest or weed control at 125 g/ha ([5]; pre-emergence, Preemergence, scale 0 to 100 (0 no effect, 100 complete control), read-out: Plant response rating, Foxtail, Giant) of 0%, a pest or weed control at 500 g/ha ([5]; pre-emergence, Preemergence, scale 0 to 100 (0 no effect, 100 complete control), read-out: Foxtail, Giant plant response rating) of 20% and a pest or weed control at 125 g/ha ([6]; post-emergence, Postemergence, scale 0 to 100 (0 no effect, 100 complete control), read-out: Lambsquarters plant response rating) of 100%. For the same compound, the pest or weed control at 500 g/ha ([6]; post-emergence, Postemergence, scale 0 to 100, read-out: Plant response rating, Lambsquarters) was 100%, the pest or weed control at 125 g/ha ([6]; pre-emergence, Preemergence, scale 0 to 100 (0 no effect, 100 complete control), read-out: Plant response rating, Lambsquarters) was 70% and the pest or weed control at 500 g/ha ([6]; pre-emergence, Preemergence, scale 0 to 100 (0 no effect, 100 complete control), read-out: Lambsquarters plant response rating) was 100%. The pest or weed control at 125 g/ha ([7]; post-emergence, Postemergence, scale 0 to 100 (0 no effect, 100 complete control), read-out: Morningglory plant response rating) was 90%, the pest or weed control at 500 g/ha ([7]; post-emergence, Postemergence, scale 0 to 100, read-out: Plant response rating, Morningglory) was 100% and the pest or weed control at 125 g/ha ([7]; pre-emergence, Preemergence, scale 0 to 100 (0 no effect, 100 complete control), read-out: Plant response rating, Morningglory) was 100%. It also gave a pest or weed control at 500 g/ha ([7]; pre-emergence, Preemergence, scale 0 to 100 (0 no effect, 100 complete control), read-out: Morningglory plant response rating) of 100%, a pest or weed control at 125 g/ha ([8]; post-emergence, Postemergence, scale 0 to 100 (0 no effect, 100 complete control), read-out: Pigweed plant response rating) of 100% and a pest or weed control at 500 g/ha ([8]; post-emergence, Postemergence, scale 0 to 100, read-out: Plant response rating, Pigweed) of 100%. For the same compound, the pest or weed control at 125 g/ha ([8]; pre-emergence, Preemergence, scale 0 to 100 (0 no effect, 100 complete control), read-out: Plant response rating, Pigweed) was 60%, the pest or weed control at 500 g/ha ([8]; pre-emergence, Preemergence, scale 0 to 100 (0 no effect, 100 complete control), read-out: Pigweed plant response rating) was 80% and the pest or weed control at 125 g/ha ([9]; post-emergence, Postemergence, scale 0 to 100 (0 no effect, 100 complete control), read-out: Velvetleaf plant response rating) was 100%. For the same compound, the pest or weed control at 500 g/ha ([9]; post-emergence, Postemergence, scale 0 to 100, read-out: Plant response rating, Velvetleaf) was 100%, the pest or weed control at 125 g/ha ([9]; pre-emergence, Preemergence, scale 0 to 100 (0 no effect, 100 complete control), read-out: Plant response rating, Velvetleaf) was 30% and the pest or weed control at 500 g/ha ([9]; pre-emergence, Preemergence, scale 0 to 100 (0 no effect, 100 complete control), read-out: Velvetleaf plant response rating) was 100%. It also gave a plant injury at 125 g/ha ([10]; post-emergence, Postemergence, scale 0 to 100 (0 no effect, 100 complete control), read-out: Wheat plant response rating) of 0%, a plant injury at 500 g/ha ([10]; post-emergence, Postemergence, scale 0 to 100, read-out: Plant response rating, Wheat) of 70% and a plant injury at 125 g/ha ([10]; pre-emergence, Preemergence, scale 0 to 100 (0 no effect, 100 complete control), read-out: Plant response rating, Wheat) of 10%. The plant injury at 500 g/ha ([10]; pre-emergence, Preemergence, scale 0 to 100 (0 no effect, 100 complete control), read-out: Wheat plant response rating) was 50%, the pest or weed control at 125 g/ha ([11]; 125 g ai/ha, scale 0 to 100 (0 no effect, 100 complete control), read-out: Blackgrass plant response rating) was 60% and the pest or weed control at 500 g/ha ([11]; 500 g ai/ha, scale 0 to 100, read-out: Plant response rating, Blackgrass) was 80%. The pest or weed control at 125 g/ha (wild oat (Avena fatua); 125 g ai/ha, scale 0 to 100 (0 no effect, 100 complete control), read-out: Oat, Wild plant response rating) was 10%, the pest or weed control at 500 g/ha (wild oat (Avena fatua); 500 g ai/ha, scale 0 to 100, read-out: Plant response rating, Oat, Wild) was 60% and the pest or weed control at 1000 g/ha [12] was 80%. It also gave a pest or weed control at 1000 g/ha [13] of 90%, a plant injury at 1000 g/ha (rice (Oryza sativa)) of 60% and a pest or weed control at 1000 g/ha [14] of 50%.
